Results as given in US6627441B1, “Increasing levels of growth regulator and/or water stress during embryo development” (priority 1998, dated 2003).

Legend:
Type in all cases: cell-based
[1] = system: white spruce somatic embryos; assay: Varying ABA and PEG during development, precocious germination observations (Example 2); conditions: 6 weeks
Procedure: In order to test the above hypothesis, various concentrations of PEG and ABA were tested and modified during development of white spruce somatic embryos.
The starting treatments were prepared as outlined in Table 2.
The embryos were transferred to fresh medium every two weeks over a six week period. Observations were then recorded. The treatments consisted of the following ABA concentrations and media water potentials, with three replicates per treatment.

[2] = system: white spruce somatic embryos; assay: Effect of water stress and ABA on somatic embryo moisture contents (Example 4)
Procedure: Water potentials were measured for liquid media containing various osmotica at a range of concentrations, which were plotted on a curve. Determinations were made using a vapour pressure osmometer (Wescor). Moisture content determinations were done using methods described previously by Attree et al. (U.S. Pat. No. 5,464,769).
Embryos were cultured on medium containing 3% sucrose and ABA, with additional osmoticum adjusted to vary water potentials, as shown in Table 4.
Embryos were cultured for six weeks and moisture contents determined. Determinations for each treatment were made weekly, with three replicates per treatment. 50 embryos per replicate were used. In some instances, particularly for the control with low osmoticum, insufficient embryos were produced. In these cases, the minimum number of embryos used per replicate was thirty. For weeks 0 to 2, the embryos were too small to be used for moisture content determinations, so whole tissue was used instead.

[3] = system: white spruce somatic embryos; assay: Reducing or increasing ABA with increasing water stress and desiccation, plant growth (Example 9); conditions: for Shoot development / Survival / Total plant length: 8 weeks growth
Procedure: Experiments were conducted to determine the effects of decreasing ABA levels in combination with increasing water stress on development, desiccation tolerance and germination of white spruce. Embryos from preculture (Example 7, treatment 8) were plated onto the transfer schedule outlined below.
Cotyledonary embryos were visible after the second week of culture, and cotyledons were prominent from the fourth week during which time the somatic embryos were in contact with 40 to 20 μM of ABA. […] For germination, the best embryos which were not showing precocious germination were selected. Somatic embryos were either germinated directly or were desiccated then germinated as described above. Controls were prepared using embryos developed using pretreatment 8, in Example 7, followed by culture on solidified medium treatment 6 of Example 4.

[4] = treatment 3: PEG medium 290 mmol/kg with constant ABA 20 μM, six weeks

With CC1=CC(=O)CC(C)(C)[C@@]1(O)/C=C/C(C)=C\C(=O)O [ABA, abscisic acid] the “observations (greening, precocious germination)” value (from here on “observations”) ([1]; Expt A (start PEG 260 mmol/kg, ABA 16 μM), 1. Control, fresh medium of the same composition) was “green, cotyledon elongation”, the “observations” value ([1]; Expt A (start PEG 260 mmol/kg, ABA 16 μM), 2. Raise ABA (24, 32 μM)) was “slight or no greening” and the “observations” value ([1]; Expt A (start PEG 260 mmol/kg, ABA 16 μM), 5. Raise PEG (290, 320 mmol/kg), raise ABA (24, 32 μM)) was “slight or no greening”. The “observations” value ([1]; Expt B (start PEG 260 mmol/kg, ABA 24 μM), 1. Control, fresh medium of the same composition) was “greening”, the “observations” value ([1]; Expt B (start PEG 260 mmol/kg, ABA 24 μM), 2. Raise ABA (32, 32 μM)) was “no greening” and the “observations” value ([1]; Expt B (start PEG 260 mmol/kg, ABA 24 μM), 5. Raise PEG (290, 320 mmol/kg), raise ABA (32, 32 μM)) was “slight or no greening”. For the same compound, the “observations” value ([1]; Expt C (start PEG 290 mmol/kg, ABA 8 μM), 2. Raise ABA (16, 24 μM)) was “greening”, the “observations” value ([1]; Expt C (start PEG 290 mmol/kg, ABA 8 μM), Raise PEG (12, 14%), raise ABA (16, 24 μM)) was “none or slight greening” and the “observations” value ([1]; Expt D (start PEG 290 mmol/kg, ABA 16 μM), 2. Raise ABA (24, 32 μM)) was “no greening”. For the same compound, the “observations” value ([1]; Expt D (start PEG 290 mmol/kg, ABA 16 μM), 4. Raise PEG (290, 320), lower ABA (8, 8 μM)) was “greening”, the “observations” value ([1]; Expt D (start PEG 290 mmol/kg, ABA 16 μM), 5. Raise PEG (290, 320), raise ABA (24, 32 μM)) was “no greening” and the greening of embryos ([2]; treatment 1: ABA 20 to 40 μM, 3% sucrose, 190 mmol/kg, after six weeks) was “evidence of greening”. The greening of embryos [2, 4] was “slight greening of cotyledons”, the “moisture content of somatic embryos” value [2, 4] was “below 55%” and the “moisture content of somatic embryos” value ([2]; treatment 4: PEG medium 290 mmol/kg with increasing ABA 20, 30, 40 μM, compared with treatment 3) was “further slight reductions in moisture content”. The greening of embryos ([2]; treatment 5: ABA to 40 μM, PEG medium to 400 mmol/kg) was “No greening”, the “moisture content of somatic embryos” value ([2]; treatment 5: ABA to 40 μM, PEG medium to 400 mmol/kg after week two, compared with treatment 4) was “a further reduction in moisture content” and the greening of embryos ([2]; treatment 6: ABA to 40 μM, PEG medium to 540 mmol/kg) was “No greening”. For the same compound, the “yield of mature somatic embryos” value ([2]; treatment 6: PEG water potential raised to 540 mmol/kg with ABA to 40 μM) was 300-350 mature somatic embryos per dish, the “moisture content of somatic embryos” value ([2]; treatment 6: PEG water potential raised to 540 mmol/kg with ABA to 40 μM, end of six-week culture) was ~40% and the “appearance of developed embryos, precocious germination” value ([3]; ABA decreasing 40, 20, 10, 0 μM with PEG 290, 400, 540, 540 mmol/kg over 6 weeks) was “slight swelling and slight greening”. It also gave a Shoot development ([3]; Increasing ABA, desiccated) of 93%, a Survival ([3]; Increasing ABA, desiccated) of 100% and a Total plant length ([3]; Increasing ABA, desiccated) of 34.5 mm. The Shoot development ([3]; Reducing ABA, desiccation) was 0%, the Survival ([3]; Reducing ABA, desiccation) was 80.5% and the Total plant length ([3]; Reducing ABA, desiccation) was 8.14 mm. It also gave a Shoot development ([3]; Reducing ABA, no desiccation) of 0%, a Survival ([3]; Reducing ABA, no desiccation) of 100% and a Total plant length ([3]; Reducing ABA, no desiccation) of 25.8 mm. For the same compound, the new needle development ([3]; Reducing ABA, non-desiccated embryos, after 12 weeks of growth) was “none had shown new needle development”.
